The values below come from ChEMBL document CHEMBL1201862, “PubChem BioAssay data set” (2004).

Each structure is given as a SMILES string.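 Protocol summary: plate cells (96-well), add compound at 5 concentrations, incubate 48 h, interpolate endpoints linearly. The concentration for 50% growth inhibition is given as GI50.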 The source made the active and inactive calls. Rule as the data show it: active = GI50 up to about 1.1 µM and inactive = higher.

Common to all, as to experiment: NCI-60 cell line screen, 48 h
Assay [1] relates to A498.
For assay [2], the system named is COLO 205.
The subject of assay [3] is NCI-H522.
Assay [4] has as its system SK-OV-3.
Assay [5] has as its system SF-539.
For assay [6], the system named is Hs-578T.
Assay [7] has as its system SK-MEL-5.
The test system of assay [8] is HL-60.
For assay [9], the system named is DU-145.
The subject of assay [10] is SNB-19.
Assay [11] concerns OVCAR-3.
Assay [12] has as its system SR.
Assay [13] relates to HT-29.
In assay [14] the test system is UO-31.
Assay [15] deals with UACC-62.
For assay [16], the system named is PC-3.
Assay [17] has as its system OVCAR-8.
Assay [18] has as its system M14.
Assay [19] relates to SF-268.
Assay [20] concerns MDA-N.

In the case of `CCOC(=O)c1nc2cc(F)c(F)cc2nc1NCc1cc(OC)c(OC)c(OC)c1`, the GI50 was > 100 µM (inactive) in [1]; > 100 µM (inactive) in assay [2]; > 100 µM (inactive) in [3]; > 100 µM (inactive) in assay [4]; > 100 µM (inactive) in assay [5]; 50.7 µM (inactive) in assay [6]. In addition, the GI50 is 76.7 µM (inactive) in [7]; > 100 µM (inactive) in assay [8]; > 100 µM (inactive) in assay [9]; 42.5 µM (inactive) in assay [10]; > 100 µM (inactive) in assay [11]; > 100 µM (inactive) in assay [12]. Further, the GI50 was > 100 µM (inactive) in assay [13]; 63.7 µM (inactive) in assay [14]; 67.1 µM (inactive) in assay [15]; > 100 µM (inactive) in assay [16]; > 100 µM (inactive) in [17]; > 100 µM (inactive) in assay [18]. Besides, the GI50 in assay [19] and in assay [20] was > 100 µM (inactive) in each case.

Turning to `CC(=O)OC(Cc1cc(C=C(C(F)(F)F)C(F)(F)F)cc(C)n1)(C(F)(F)F)C(F)(F)F`, the GI50 in [1] is 1.75 µM (inactive); in assay [2], 0.759 µM (active); in assay [3] it was 2.01 µM (inactive); in assay [4], 19.5 µM (inactive); in [5], 2.06 µM (inactive); in assay [6], 1.95 µM (inactive). The GI50 is 1.49 µM (inactive) in assay [7]; 0.124 µM (active) in [8]; 2.48 µM (inactive) in assay [9]; 1.88 µM (inactive) in assay [10]; 1.36 µM (inactive) in [11]; 0.352 µM (active) in assay [12]. For the same compound, the GI50 was 0.55 µM (active) in assay [13]; 1.64 µM (inactive) in [14]; 1.68 µM (inactive) in [15]; 1.77 µM (inactive) in assay [16]; 1.04 µM (active) in assay [17]; 1.57 µM (inactive) in [18]. The GI50 is 1.74 µM (inactive) in [19] and 1.55 µM (inactive) in [20].

Turning to `COc1cc2c3cc1Oc1c(OC)c(OC)cc4c1C(Cc1ccc(O)c(c1)-c1cc(ccc1OC)CC3N(C)CC2)N(C)CC4` (stereo not given), the GI50 in assay [1] was 23.2 µM (inactive); in assay [2], 25.1 µM (inactive); in assay [3] it was 11.5 µM (inactive); in assay [4] it was 72.8 µM (inactive); in [5] it was 7.08 µM (inactive); in [6], 21.3 µM (inactive). For the same compound, the GI50 in assay [7] was 14.8 µM (inactive); in [8] it was 2.66 µM (inactive); in assay [9], 50.8 µM (inactive); in assay [10], 22.3 µM (inactive); in assay [11], 21.6 µM (inactive); in assay [12], 0.659 µM (active). For the same compound, the GI50 was 6.92 µM (inactive) in assay [13]; 13.9 µM (inactive) in [14]; 23.9 µM (inactive) in [15]; 20.4 µM (inactive) in [16]; 17.4 µM (inactive) in [17]; 3.18 µM (inactive) in [18]. In addition, the GI50 in assay [19] was 19.1 µM (inactive); in assay [20] it was 13.6 µM (inactive).

Take `CCCCCCCCCCCCCCCCCCOC(COP(=O)(O)OCC1OC(n2cc(F)c(=O)[nH]c2=O)CC1O)COP(=O)(O)OCC1OC(n2ccc(N)nc2=O)C(O)C1O` (stereo not given): the GI50 in assay [1] is 0.485 µM (active); in assay [2], 20.8 µM (inactive); in assay [3], > 40.2 µM (inactive); in [4], > 71.3 µM (inactive); in assay [5] it was 0.863 µM (active); in assay [6], > 100 µM (inactive). Also, the GI50 in assay [7] was > 73.5 µM (inactive); in [8] it was 3.66 µM (inactive); in assay [9], 3.33 µM (inactive); in [10], 6.46 µM (inactive); in assay [11], > 100 µM (inactive); in assay [12], 0.925 µM (active). The GI50 in assay [13] is 18.2 µM (inactive); in assay [14], 9.64 µM (inactive); in assay [15], 2.56 µM (inactive); in assay [16], 15.6 µM (inactive); in assay [17], 4.51 µM (inactive); in assay [18], 6.34 µM (inactive). Besides, the GI50 in [19] was 0.536 µM (active); in [20], > 95.5 µM (inactive).

`Cc1cn([C@H]2C[C@H](O)[C@@H](CO)O2)c(=O)nc1N`: the GI50 in [1], in assay [2], in assay [3], in assay [4], in [5] and in assay [6] was > 100 µM (inactive) throughout. The GI50 in assay [7], in assay [8], in [9], in [10], in assay [11] and in assay [12] was > 100 µM (inactive) throughout. The GI50 in assay [13], in assay [14], in assay [15], in assay [16], in assay [17] and in assay [18] was > 100 µM (inactive) each time. Further, the GI50 in assay [19] and in assay [20] was > 100 µM (inactive) in each case.

For `Cc1cc(C)c2c(=N)c3ccccc3n(CCCCCCCCn3c4ccccc4c(=N)c4c(C)cc(C)nc43)c2n1`, the GI50 in [1] is 1.59 µM (inactive); in [2] it was 1.47 µM (inactive); in assay [3] it was 1.38 µM (inactive); in [4] it was 1.73 µM (inactive); in assay [5] it was 1.78 µM (inactive); in [6] it was 1.81 µM (inactive). In addition, the GI50 in assay [7] was 1.82 µM (inactive); in assay [8], 0.433 µM (active); in [9], 1.64 µM (inactive); in [10], 0.282 µM (active); in assay [11], 1.76 µM (inactive); in assay [12], 0.127 µM (active). The GI50 in assay [13] was 0.224 µM (active); in [14] it was 1.46 µM (inactive); in assay [15] it was 1.73 µM (inactive); in assay [16], 1.38 µM (inactive); in [17], 1.59 µM (inactive); in assay [18] it was 1.66 µM (inactive). The results for the GI50 in [19] and in [20] were 1.74 µM (inactive) and 1.56 µM (inactive), respectively.

With `O=C(O)c1cc2c(cc1S(=O)(=O)O)C1C(C3C2C2(Cl)C(Cl)=C(Cl)C3(Cl)C2(Cl)Cl)C2(Cl)C(Cl)=C(Cl)C1(Cl)C2(Cl)Cl` (stereo not given), the GI50 is 97.1 µM (inactive) in assay [1]; 44.1 µM (inactive) in assay [2]; 17.7 µM (inactive) in [3]; 39.9 µM (inactive) in assay [4]; 25.4 µM (inactive) in [5]; 45.2 µM (inactive) in [6]. The GI50 was 34.7 µM (inactive) in assay [7]; 2.43 µM (inactive) in assay [8]; 48.1 µM (inactive) in assay [9]; 47.4 µM (inactive) in [10]; 22.9 µM (inactive) in [11]; 24.7 µM (inactive) in [12]. For the same compound, the GI50 is 21.8 µM (inactive) in [13]; 44.6 µM (inactive) in [14]; 21.9 µM (inactive) in assay [15]; 41 µM (inactive) in [16]; 54.7 µM (inactive) in assay [17]; 37.3 µM (inactive) in assay [18]. Moreover, the GI50 in assay [19] is 58.7 µM (inactive); in [20] it was 31.4 µM (inactive).

For `Cc1nnc2sc(-c3ccc(-c4ccccc4Cl)o3)nn12`, the GI50 in [1] is 37.2 µM (inactive); in [2], 38.5 µM (inactive); in [3], 25.4 µM (inactive); in assay [4], 57.9 µM (inactive); in assay [5], 19.7 µM (inactive); in [6], 55.7 µM (inactive). Further, the GI50 was 20.9 µM (inactive) in assay [7]; 19.8 µM (inactive) in [8]; 36.6 µM (inactive) in assay [9]; 40.5 µM (inactive) in assay [10]; 27 µM (inactive) in assay [11]; 19 µM (inactive) in [12]. In addition, the GI50 is 34.4 µM (inactive) in [13]; 33.7 µM (inactive) in [14]; 35.2 µM (inactive) in assay [15]; 37.2 µM (inactive) in assay [16]; 19.8 µM (inactive) in [17]; 32 µM (inactive) in [18]. In addition, the GI50 in [19] was 33.9 µM (inactive); in assay [20], 17.9 µM (inactive).

With `O=c1c2cc([N+](=O)[O-])ccc2n2n1Cc1ccccc1CC2`, the GI50 was > 100 µM (inactive) in assay [1]; > 100 µM (inactive) in assay [2]; > 100 µM (inactive) in assay [3]; > 100 µM (inactive) in [4]; > 100 µM (inactive) in assay [5]; 74.8 µM (inactive) in assay [6]. Besides, the GI50 in [7], in assay [8], in assay [9], in [10], in assay [11] and in [12] was > 100 µM (inactive) in each case. Further, the GI50 in assay [13], in [14], in assay [15], in assay [16], in [17] and in assay [18] was > 100 µM (inactive) each time. Further, the GI50 in assay [19] and in assay [20] was > 100 µM (inactive) throughout.

On to `O=[N+]([O-])c1c(F)c(F)c2c(c1F)Nc1ccccc1S2`, for which the GI50 in [1] was 16.4 µM (inactive); in assay [2], 13.9 µM (inactive); in assay [3] it was 4.68 µM (inactive); in assay [4], 18.2 µM (inactive); in [5], 20.6 µM (inactive); in [6], 7.1 µM (inactive). Moreover, the GI50 in assay [7] is 11.6 µM (inactive); in assay [8], 4.29 µM (inactive); in assay [9], 4.06 µM (inactive); in assay [10], 7.23 µM (inactive); in assay [11], 2.03 µM (inactive); in assay [12], 2.62 µM (inactive). Further, the GI50 is 2.07 µM (inactive) in assay [13]; 18.2 µM (inactive) in [14]; 5.61 µM (inactive) in assay [15]; 9.16 µM (inactive) in assay [16]; 1.96 µM (inactive) in assay [17]; 3.64 µM (inactive) in assay [18]. In addition, the results for the GI50 in assay [19] and in assay [20] were 2.49 µM (inactive) and 4.42 µM (inactive), respectively.
